Tests used:
Assay in all cases: relative viability (nuclei count vs DMSO), 5 days (fraction); higher = more cells survive
[1] = tested on: SW 900
Outline: (§1)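 For relative viability, nuclei counts in treated wells were divided by those in vehicle wells. Lung cancer cell lines had been pin-tool dosed in 1536-well plates the day after seeding and cultured for 5 days, then fixed and stained in one step (final 0.05% Triton X-100, 1% formaldehyde, 1 ug/ml Hoechst) and imaged at 4×. Doses were one drug alone or a fixed anchor-drug dose plus five library-drug doses (not always all listed) in √10 steps, and values are duplicate-plate medians.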

[2] = tested on: NCI-H1792
Outline: as §1

[3] = tested on: NCI-H1437
Outline: as §1

[4] = tested on: NCI-H596
Outline: as §1

[5] = tested on: NCI-H1650
Outline: as §1

[6] = tested on: NCI-H650
Outline: as §1

[7] = tested on: HCC-15
Outline: as §1

[8] = tested on: A-427
Outline: as §1

[9] = tested on: NCI-H2342
Outline: as §1

[10] = tested on: EKVX
Outline: as §1

[11] = tested on: NCI-H838
Outline: as §1

[12] = tested on: HCC-44
Outline: as §1

[13] = tested on: COR-L23
Outline: as §1

[14] = tested on: NCI-H1975
Outline: as §1

[15] = tested on: BEN
Outline: as §1

[16] = tested on: HCC-827
Outline: as §1

[17] = tested on: 201T
Outline: as §1

[18] = tested on: SK-MES-1
Outline: as §1

[19] = tested on: HARA
Outline: as §1

[20] = tested on: NCI-H23
Outline: as §1

[21] = tested on: NCI-H441
Outline: as §1

[22] = tested on: NCI-H358
Outline: as §1

Nc1ccn([C@@H]2O[C@H](CO)[C@@H](O)[C@@H]2O)c(=O)n1 [Cytarabine] + Nc1nc2[nH]cc(CCc3ccc(C(=O)N[C@@H](CCC(=O)O)C(=O)O)cc3)c2c(=O)[nH]1 [Pemetrexed] (partner 0.2 µM) showed a relative viability ([1]; first compound 0.005 µM) of 0.432, a relative viability ([1]; first compound 0.01581 µM) of 0.499 and a relative viability ([1]; first compound 0.05 µM) of 0.441. The relative viability ([1]; first compound 0.1581 µM) was 0.179, the relative viability ([1]; first compound 0.5 µM) was 0.143 and the relative viability ([2]; first compound 0.01581 µM) was 0.672. The relative viability ([2]; first compound 0.05 µM) was 0.751, the relative viability ([2]; first compound 0.1581 µM) was 0.182 and the relative viability ([2]; first compound 0.5 µM) was 0.115. The relative viability ([3]; first compound 0.005 µM) was 0.339, the relative viability ([3]; first compound 0.01581 µM) was 0.344 and the relative viability ([3]; first compound 0.05 µM) was 0.335. For the same compound, the relative viability ([3]; first compound 0.1581 µM) was 0.321, the relative viability ([3]; first compound 0.5 µM) was 0.258 and the relative viability ([4]; first compound 0.005 µM) was 0.41. It also gave a relative viability ([4]; first compound 0.01581 µM) of 0.485, a relative viability ([4]; first compound 0.05 µM) of 0.472 and a relative viability ([4]; first compound 0.1581 µM) of 0.379. It also gave a relative viability ([4]; first compound 0.5 µM) of 0.349, a relative viability ([5]; first compound 0.005 µM) of 0.367 and a relative viability ([5]; first compound 0.01581 µM) of 0.353. The relative viability ([5]; first compound 0.05 µM) was 0.262, the relative viability ([5]; first compound 0.1581 µM) was 0.199 and the relative viability ([5]; first compound 0.5 µM) was 0.158. For the same compound, the relative viability ([6]; first compound 0.005 µM) was 0.809, the relative viability ([6]; first compound 0.01581 µM) was 0.581 and the relative viability ([6]; first compound 0.05 µM) was 0.283. For the same compound, the relative viability ([6]; first compound 0.1581 µM) was 0.171, the relative viability ([6]; first compound 0.5 µM) was 0.157 and the relative viability ([7]; first compound 0.005 µM) was 0.249. For the same compound, the relative viability ([7]; first compound 0.01581 µM) was 0.215, the relative viability ([7]; first compound 0.05 µM) was 0.226 and the relative viability ([7]; first compound 0.1581 µM) was 0.225. The relative viability ([7]; first compound 0.5 µM) was 0.222, the relative viability ([8]; first compound 0.005 µM) was 0.745 and the relative viability ([8]; first compound 0.01581 µM) was 0.509. It also gave a relative viability ([8]; first compound 0.05 µM) of 0.332, a relative viability ([8]; first compound 0.1581 µM) of 0.27 and a relative viability ([8]; first compound 0.5 µM) of 0.253. The relative viability ([9]; first compound 0.005 µM) was 0.667, the relative viability ([9]; first compound 0.01581 µM) was 0.707 and the relative viability ([9]; first compound 0.05 µM) was 0.638. For the same compound, the relative viability ([9]; first compound 0.1581 µM) was 0.504, the relative viability ([9]; first compound 0.5 µM) was 0.353 and the relative viability ([10]; first compound 0.005 µM) was 0.473. For the same compound, the relative viability ([10]; first compound 0.01581 µM) was 0.364, the relative viability ([10]; first compound 0.05 µM) was 0.361 and the relative viability ([10]; first compound 0.5 µM) was 0.362. For the same compound, the relative viability ([11]; first compound 0.005 µM) was 0.243, the relative viability ([11]; first compound 0.01581 µM) was 0.235 and the relative viability ([11]; first compound 0.05 µM) was 0.272. For the same compound, the relative viability ([11]; first compound 0.1581 µM) was 0.216, the relative viability ([11]; first compound 0.5 µM) was 0.213 and the relative viability ([12]; first compound 0.005 µM) was 0.717. It also gave a relative viability ([12]; first compound 0.01581 µM) of 0.629, a relative viability ([12]; first compound 0.05 µM) of 0.67 and a relative viability ([12]; first compound 0.1581 µM) of 0.751. The relative viability ([12]; first compound 0.5 µM) was 0.774, the relative viability ([13]; first compound 0.005 µM) was 0.196 and the relative viability ([13]; first compound 0.01581 µM) was 0.204. The relative viability ([13]; first compound 0.05 µM) was 0.206, the relative viability ([13]; first compound 0.1581 µM) was 0.16 and the relative viability ([13]; first compound 0.5 µM) was 0.158. For the same compound, the relative viability ([14]; first compound 0.005 µM) was 0.255, the relative viability ([14]; first compound 0.01581 µM) was 0.287 and the relative viability ([14]; first compound 0.05 µM) was 0.297. For the same compound, the relative viability ([14]; first compound 0.1581 µM) was 0.28, the relative viability ([14]; first compound 0.5 µM) was 0.266 and the relative viability ([15]; first compound 0.005 µM) was 0.632. It also gave a relative viability ([15]; first compound 0.01581 µM) of 0.512, a relative viability ([15]; first compound 0.05 µM) of 0.383 and a relative viability ([15]; first compound 0.1581 µM) of 0.366. The relative viability ([15]; first compound 0.5 µM) was 0.287, the relative viability ([16]; first compound 0.005 µM) was 0.222 and the relative viability ([16]; first compound 0.01581 µM) was 0.281. The relative viability ([16]; first compound 0.05 µM) was 0.161, the relative viability ([16]; first compound 0.1581 µM) was 0.152 and the relative viability ([16]; first compound 0.5 µM) was 0.113. It also gave a relative viability ([17]; first compound 0.005 µM) of 0.361, a relative viability ([17]; first compound 0.01581 µM) of 0.353 and a relative viability ([17]; first compound 0.05 µM) of 0.309. It also gave a relative viability ([17]; first compound 0.1581 µM) of 0.325, a relative viability ([17]; first compound 0.5 µM) of 0.25 and a relative viability ([18]; first compound 0.005 µM) of 0.684. The relative viability ([18]; first compound 0.01581 µM) was 0.595, the relative viability ([18]; first compound 0.05 µM) was 0.336 and the relative viability ([18]; first compound 0.1581 µM) was 0.233. The relative viability ([18]; first compound 0.5 µM) was 0.207, the relative viability ([19]; first compound 0.005 µM) was 0.243 and the relative viability ([19]; first compound 0.01581 µM) was 0.221. For the same compound, the relative viability ([19]; first compound 0.05 µM) was 0.217, the relative viability ([19]; first compound 0.1581 µM) was 0.171 and the relative viability ([19]; first compound 0.5 µM) was 0.153. The relative viability ([20]; first compound 0.005 µM) was 0.611, the relative viability ([20]; first compound 0.01581 µM) was 0.527 and the relative viability ([20]; first compound 0.05 µM) was 0.445. The relative viability ([20]; first compound 0.1581 µM) was 0.172, the relative viability ([20]; first compound 0.5 µM) was 0.159 and the relative viability ([21]; first compound 0.005 µM) was 0.273. The relative viability ([21]; first compound 0.01581 µM) was 0.251, the relative viability ([21]; first compound 0.05 µM) was 0.331 and the relative viability ([21]; first compound 0.1581 µM) was 0.226. For the same compound, the relative viability ([21]; first compound 0.5 µM) was 0.144, the relative viability ([22]; first compound 0.005 µM) was 0.195 and the relative viability ([22]; first compound 0.01581 µM) was 0.188. The relative viability ([22]; first compound 0.05 µM) was 0.185, the relative viability ([22]; first compound 0.1581 µM) was 0.168 and the relative viability ([22]; first compound 0.5 µM) was 0.116.
